Values quoted from earlier work in patent US20190320688A1, “COMPOSITIONS FOR PREVENTING AND RELIEVING HANGOVER & LIVER DAMAGE WHICH OCCUR DUE TO ALCOHOL CONSUMPTION” (priority 2018, published 2019).

Conditions: biological activities listed in background table

Methylcurcumin
Activity: L. amazonensis
